Drawing on patent publication US20090214529A9, “KINESIN INHIBITORS” (TaiGen Biotechnology Co., Ltd., priority 2007, published 2009), this text covers IC50 for 26 compounds.

The subject of this experiment is tumor cell. The experiment is described as follows: Cytotoxicity assay (MTS). Format: cell-based. The following applies: 72 h; incubation for three days; read-out: IC50, tumor cell growth inhibition (MTS). The procedure: The efficacy of a test compound in inhibiting tumor cell growth was analyzed using a MTS assay. The MTS assay is a calorimetric method for the determination of viable cells in proliferation by using a tetrazolium compound (3-(4,5-dimethylthiazol-2-yl)-5-(3-[…])-2-(4-sulfophenyl)-2H-tetrazolium, inner salt; MTS) and an electron-coupling agent (phenazine methosulfate; PMS). The MTS reagent is converted by dehydrogenase enzymes in metabolically active cells into a formazan that is soluble in a tissue culture medium.
In this assay, tumor cell suspensions (30 μl/well) were seeded into 384-well flat-bottomed tissue culture plates at an appropriate density overnight. A fresh medium (3 μl/well) containing varying concentrations of a test compound or vehicle was added to the culture followed by incubation for three days. At the end of the incubation, all plates were processed simultaneously as follows: The culture medium was aspirated, a MTS cell proliferation assay (Promega) solution (30 μl/well) was added, and the plates were incubated at 37° C. for about 2 hours. Absorbance (a parameter proportional to the cell mass) was measured at 490 nm using a Multiskan (Thermo Electron Corporation, Waltham, Mass.). Inhibition effects were expressed as corrected T/C values for each test compound according to the following equation:
T/C=(T−Blank)/(C−Blank)×100(%),
where T is the mean absorbance of the treated cells, C is the mean absorbance of the controls, and Blank is the mean absorbance of the cell free well.

A word on the IC50: it is the concentration needed to halve the response being measured. With `Cc1ccc(C(=O)N(CCCN)C(c2nc3cc4[nH]c(Br)cc4cc3c(=O)n2Cc2cccs2)C(C)C)cc1` (centres unmarked) [Compound 1], the IC50 is under 30 µM.
With `Cc1ccc(C(=O)N(CCCN)C(c2nc3cc4[nH]ccc4cc3c(=O)n2Cc2cccs2)C(C)C)cc1` (centres unmarked) [Compound 2], the IC50 was under 30 µM.
For the compound `Cc1ccc(C(=O)N(CCCN)C(c2nc3cc4ccccc4cc3c(=O)n2Cc2ccccc2)C(C)C)cc1` (centres unmarked) [Compound 3], the concentration for half-maximal inhibition (IC50) was under 30 µM.
Turning to `Cc1ccc(C(=O)N(CCCN)C(c2nc3c(Br)c4ccccc4cc3c(=O)n2Cc2ccccc2)C(C)C)cc1` (centres unmarked) [Compound 4], the IC50 is under 30 µM.
For `Cc1ccc(C(=O)N(CCCN)C(c2nc3cc4ccccc4cc3c(=O)n2Cc2ccc(Cl)s2)C(C)C)cc1` (centres unmarked) [Compound 5], the IC50 is under 30 µM.
`Cc1ccc(C(=O)N(CCCN)C(c2nc3c(Br)c4ccccc4cc3c(=O)n2Cc2ccc(Cl)s2)C(C)C)cc1` (centres unmarked) [Compound 6]: the IC50 is under 30 µM.
`Cc1ccc(CN(CCCN)C(c2nc3cc4ccccc4cc3c(=O)n2Cc2ccccc2)C(C)C)cc1` (centres unmarked) [Compound 7]: the IC50 was under 30 µM.
Take `Cc1ccc(C(=O)N(CCCN)C(c2nc3c(C#N)c4ccccc4cc3c(=O)n2Cc2ccc(Cl)s2)C(C)C)cc1` (centres unmarked) [Compound 8]: the IC50 was under 30 µM.
As for `Cc1ccc(C(=O)N(CCCN)C(c2nc3c(I)c4ccccc4cc3c(=O)n2Cc2ccccc2)C(C)C)cc1` (centres unmarked) [Compound 9], the IC50 was under 30 µM.
With `Cc1ccc(C(=O)N(CCCN)C(c2nc3nc4ccccc4nc3c(=O)n2Cc2ccccc2)C(C)C)cc1` (centres unmarked) [Compound 10] the figure was under 30 µM; with `CCC(c1nc2nc3ccccc3cc2c(=O)n1Cc1ccccc1)N(CCCN)C(=O)c1ccc(C)cc1` (centres unmarked) [Compound 11], under 30 µM.
With `CCC(c1nc2nc3cc(Cl)ccc3cc2c(=O)n1Cc1ccccc1)N(CCCN)C(=O)c1ccc(C)cc1` (centres unmarked) [Compound 12] the figure was under 30 µM; with `Cc1ccc(C(=O)N(CCCN)C(c2nc3c(oc4ccccc43)c(=O)n2Cc2ccccc2)C(C)C)cc1` (centres unmarked) [Compound 13], under 30 µM; with `Cc1ccc(C(=O)N(CCCN)C(c2nc3c(oc4ccccc43)c(=O)n2Cc2ccc(Br)s2)C(C)C)cc1` (centres unmarked) [Compound 14], under 30 µM.
For `Cc1ccc(C(=O)N(CCCN)C(c2nc3c(oc4ccccc43)c(=O)n2Cc2cccs2)C(C)C)cc1` (centres unmarked) [Compound 15], the half-inhibitory concentration (IC50) is under 30 µM.
For the compound `Cc1ccc(C(=O)N(CCCN)C(c2nc3c(oc4ccccc43)c(=O)n2Cc2ccc(Cl)s2)C(C)C)cc1` (centres unmarked) [Compound 16], the IC50 was under 30 µM.
As for `CCC(c1nc2c(oc3ccccc32)c(=O)n1Cc1ccccc1)N(CCCN)C(=O)c1ccc(C)cc1` (centres unmarked) [Compound 17], the figure is under 30 µM; as for `CCC(c1nc2c(oc3ccccc32)c(=O)n1Cc1ccccc1)N(CCCN(C)C)C(=O)c1ccc(C)cc1` (centres unmarked) [Compound 19], under 30 µM.
Consider `CCC(c1nc2c(oc3ccccc32)c(=O)n1Cc1ccccc1)N(CCCN(C)C)C(=O)c1ccc(Br)cc1` (centres unmarked) [Compound 20], for which the IC50 was under 30 µM.
As for `CCC(c1nc2c(oc3ccccc32)c(=O)n1Cc1ccccc1)N(CCN)C(=O)c1ccc(C)cc1` (centres unmarked) [Compound 21], the IC50 is under 30 µM.
On to `CCC(c1nc2c(oc3ccccc32)c(=O)n1Cc1ccccc1)N(CCCCN)C(=O)c1ccc(C)cc1` (centres unmarked) [Compound 22], for which the IC50 is under 30 µM.
`CCC(c1nc2c(oc3ccccc32)c(=O)n1Cc1ccccc1)N(CCN(C)C)C(=O)c1ccc(Br)cc1` (centres unmarked) [Compound 23]: the concentration for half-maximal inhibition (IC50) was under 30 µM.
For `CCC(c1nc2c(oc3ccccc32)c(=O)n1Cc1ccccc1)N(CCCCN(C)C)C(=O)c1ccc(Br)cc1` (centres unmarked) [Compound 24], the IC50 was under 30 µM.
`Cc1ccc(C(=O)N(CCN)C(c2nc3c(oc4ccccc43)c(=O)n2Cc2ccccc2)C(C)C)cc1` (centres unmarked) [Compound 25]: the concentration for half-maximal inhibition (IC50) is under 30 µM.
With `Cc1ccc(C(=O)N(NCCN)C(c2nc3c(oc4ccccc43)c(=O)n2Cc2ccccc2)C(C)C)cc1` (centres unmarked) [Compound 26], the IC50 is under 30 µM.
Regarding `Cc1ccc(C(=O)N(CCCN)C(c2nc3c(oc4ccccc43)c(=O)n2Cc2ccccc2F)C(C)C)cc1` (centres unmarked) [Compound 27], the IC50 is under 30 µM.
